# Laboratory results as given in patent US10420798B2, “Method for treating lung injury and/or diseases related to lung injury” (TAIWAN MITOCHONDRION APPLIED TECHNOLOGY CO., LTD, priority 2014, dated 2019).
# Key:
# [1] = tested on: rat model of acute respiratory distress syndrome; assay: immunostaining of lung sections for F4/80, γ-H2AX, Cx43, heme oxygenase-1; assay type: in vivo; conditions: positive cells per HPF 400×; ARDS rats
# Experimental: (§1) A total of forty (40) specific pathogen free (SPF) adult male SD rats, each weighing 350-400 g (Charles River Technology, BioLASCO Biotechnology Co., Ltd., Taiwan) were used in the examples. The SD rats were randomly divided into 5 groups: the first group was the normal control group; the second group was the rat model of acute respiratory distress syndrome; the third group was the rat model of acute respiratory distress syndrome intraperitoneally injected with melatonin, with each dose of 50 mg per kilogram, at the 6th and the 24th hour after breathing pure oxygen; the fourth group was the rat model of acute respiratory distress syndrome intravenously injected mitochondria, with a dose of 1500 μg per rat, at the 6th hour after breathing pure oxygen; the fifth group was the rat model of acute respiratory distress syndrome administered melatonin and mitochondria in the same manners, frequency, and doses as those of the third group and the fourth group, respectively.
# The paraffin sections of the lung tissue of each group were rehydrated with 3% hydrogen peroxide for 30 minutes, followed by the addition of a high-performance Immuno-Block reagent (BioSB) at room temperature for 30 minutes. The sections were then treated with the specific primary antibody of the following proteins, respectively: F4/80 (1:100, Abcam), γ-H2AX (1:500, Abcam), heme oxygenase-1 (HO-1; 1:2000, Abcam), and Cx43. Immunohistochemical staining was performed on the sections of the lung tissue of each group to observe the expression of F4/80, γ-H2AX, heme oxygenase-1, and Cx43 in cells. In addition, the expression of the proteins mentioned above in the lung tissue sections of each group was quantified, and the results are shown in FIG. 20 to FIG. 23. The red fluorescence represents the exogenous mitochondria labeled by mito-tracker, and the green fluorescent represents the mitochondria within the lungs. […]
# [2] = tested on: rat model of acute respiratory distress syndrome; assay: western blotting / Oxyblot of lung parenchyma protein extracts; assay type: in vivo
# Excerpt: (§2) The term “protein oxidation detection kit” disclosed in the present invention refers to methods for detecting protein oxidation in cells. For example, the Oxyblot Oxidized Protein Detection Kit S7150 (Chemicon) used in the examples of the present invention detects oxidized proteins by labeling oxidized proteins in a sample with 2,4-dinitrophenylhydrazine (DNPH), separating proteins in the sample with 12% SDS polyacrylamide gel electrophoresis, transferring the separated proteins onto a transfer membrane, such as a nitrocellulose membrane, immersing the transfer membrane in buffer containing anti-DNP primary antibody (1:150) for about 2 hours, then immersing the transfer membrane in buffer containing secondary antibody (1:300) at room temperature for about an hour, and then observing expression of oxidized proteins in the sample.
# as §1
# The protein extracts of the left lungs of rats in each group were prepared. The same amount (10 to 30 μg) of protein extracts of rats in each group was detected by western blotting and Oxyblot Oxidized Protein Detection Kit S7150, Chemicon, respectively. The results were observed by enhanced chemiluminescence (ECL, Amersham Biosciences), and the performance of each protein was quantified by software (Labwork software, UVP).
# Specifically, the procedure and conditions of western blotting were as follows: Proteins were separated by SDS gel electrophoresis with a gradient of 8-10% polyacrylamide solution. The blocking agent used was a T-TBS solution containing 5% skimmed milk powder and 0.05% Tween. Primary antibodies were against the following proteins respectively: NOX-1 (1:1500, Sigma), NOX-2 (1:750, Sigma), NOX-4 (1:1000, Abcam), or interacted with polyclonal antibodies that were against the following proteins: tumor necrosis factor α (1:1000, Cell Signaling), nuclear factor κB (1:250, Abcam), matrix metalloproteinase 9 (1:3000, Abcam), transforming growth factor β (1:1000, Abcam), Smad3 (1:500, Cell Signaling), bone morphogenetic protein-2 (1:100, Abcam), Smad 1/5 (1:500, Cell Signaling), GR (1:1000, Abcam), GPx (1:1000, Abcam), Cytochrome C (1:2000, BD), NQO 1 (NAD(P)H: quinone oxidoreductase 1; 1:1000, Abcam), Heme oxygenase-1 (1:250, Abcam), caspases 3 (1:1000, Cell Signaling), and PARP (poly (ADP-ribose) polymerase; 1:1000, Cell Signaling). Secondary antibodies conjugated to HRP enzymatic fluorescence are goat antibody against mouse IgG, goat antibody against rat IgG, or goat antibody against rabbit IgG.
# [3] = tested on: rat model of acute respiratory distress syndrome; assay: lung sections: immunofluorescence and transmission electron microscopy of mitochondria; assay type: in vivo; conditions: compared with second group (ARDS)
# Experimental: as §1
# The left lungs of rats in each group were inflated with constant airway pressure (15-20 mmHg) and embedded with OCT (Tissue-Tek) for immunohistochemical staining. The right lungs of rats in each group were fixed with 4% paraformaldehyde and 0.1% glutaraldehyde phosphate buffer solution, then embedded in paraffin, and stained with hematoxylin and eosin. […]
# [4] = tested on: rat model of acute respiratory distress syndrome; assay: MPO+, CD40+, CD11b/c+ cells in BAL fluid by flow cytometry; assay type: in vivo; conditions: ARDS rats; doses of Example 5
# Experimental: as §1
# (§3) BAL fluid was obtained from rats in each group by bronchoalveolar lavage (BAL). SDS-PAGE and Coomassie Blue staining were used to detect the concentration of albumin in the BAL fluid of each group, and the results are shown in FIG. 11. Furthermore, the number of MPO+, CD40+, and CD11b/c+ cells in the BAL fluid of each group was calculated by flow cytometry.
# [5] = tested on: rat model of acute respiratory distress syndrome; assay: right ventricular systolic pressure in rat model of acute respiratory distress syndrome; assay type: in vivo; conditions: ARDS rats; melatonin 50 mg/kg i.p. at 6th and 24th hour; mitochondria 1500 μg per rat i.v. at 6th hour
# Experimental: (§4) A total of forty (40) specific pathogen free (SPF) adult male SD rats, each weighing 350-400 g (Charles River Technology, BioLASCO Biotechnology Co., Ltd., Taiwan) were used in the examples. […]
# Then, rats in each group were provided air with positive pressure ventilation (180 ml per minute) using small animal ventilators (SAR-830/A, CWE, Inc., USA) and intubation. […] Signals of right ventricular systolic pressure were measured with a pressure transducer (UFI, model 1050, CA, USA) and transmitted to bridge amplifiers (ML866 PowerLab 4/30 Data Acquisition Systems. ADlnstruments Pty Ltd., Castle Hill, NSW, Australia) to obtain the right ventricular systolic pressure of rats in each group as a reference for pulmonary hypertension. In addition, femoral artery systolic blood pressure of rats in each group was measured. The right ventricular systolic pressure and the femoral artery systolic blood pressure were analyzed by software (Labchart, ADlnstrument). […]
# [6] = tested on: rat model of acute respiratory distress syndrome; assay: albumin in BAL fluid (SDS-PAGE, Coomassie Blue); assay type: in vivo; conditions: ARDS rats; doses of Example 5
# Experimental: as §1, §3
# [7] = tested on: rat model of acute respiratory distress syndrome; assay: arterial oxygen saturation in rat model of acute respiratory distress syndrome; assay type: in vivo; conditions: ARDS rats; melatonin 50 mg/kg i.p. at 6th and 24th hour; mitochondria 1500 μg per rat i.v. at 6th hour
# Experimental: as §1
# Rats in each group in Example 5 were anesthetized. Arterial blood was taken from the carotid arteries of rats in each group, and the oxygen saturation of the blood samples was analyzed.
# The rat model of acute respiratory distress syndrome was divided into two groups. One group was given 750 μg of mitochondria per rat, and the other group was given 1500 μg of mitochondria per rat. […]
# [8] = tested on: rat model of acute respiratory distress syndrome; assay: lung histology (hematoxylin and eosin): alveolar sacs and crowded area; assay type: in vivo; conditions: per high power field 100×; ARDS rats; doses of Example 5
# Excerpt: as §4
# The integral of the crowded area in the lung tissue of rats in each group was further calculated by the following criteria: 0 represents no overlap; 1 represents less than 15% of crowded area in each of the high magnification fields; 2 represents 15-25% of crowded area in each of the high magnification fields; 3 represents 25-50% of crowded area in each of the high magnification fields; 4 represents 50-75% of crowded area in each of the high magnification fields; 5 represents 75-100% of crowded area in each of the high magnification fields. […]
# [9] = tested on: human umbilical vein endothelial cells; assay: intracellular protein oxidation (Oxyblot) under menadione oxidative stress; assay type: cell-based; conditions: after 0.5 hours and 6 hours of treatment; mitochondria after menadione vs menadione only; menadione vs untreated
# Excerpt: as §2
# Human umbilical vein endothelial cells were divided into three groups. The human umbilical vein endothelial cells of the first group remained untreated. […] Protein oxidation in each group was detected after 0.5 hours and 6 hours of treatment with a commercially available protein oxidation assay kit (Oxyblot Oxidized Protein Detection Kit S7150, Chemicon), and oxidative stress in cells of each group was further analyzed with a software (Labwork software, UVP).
compound,measurement,setting,value
COc1ccc2[nH]cc(CCNC(C)=O)c2c1 [melatonin],expression of F4/80 in lung sections,[1],significantly lower than the fourth group
same,expression of heme oxygenase-1 in lung sections,[1],significantly higher then the second group
same,expression of γ-H2AX in lung sections,[1],significantly lower than the fourth group
same,oxidative stress (oxidized proteins),[2]; Oxyblot,significantly lower than that of the second and fourth groups
same,expression level of GPx,[2]; western blot,significantly higher than those of the second and fourth groups
same,expression level of GR,[2]; western blot,significantly higher than those of the second and fourth groups
same,expression level of Heme oxygenase-1,[2]; western blot,significantly higher than those of the second and fourth groups
same,expression level of NOX-1,[2]; western blot,significantly lower than those of the second and fourth groups
same,expression level of NOX-2,[2]; western blot,significantly lower than those of the second and fourth groups
same,expression level of NOX-4,[2]; western blot,significantly lower than those of the second and fourth groups
same,expression level of NQO 1,[2]; western blot,significantly higher than those of the second and fourth groups
same,expression level of Smad3,[2]; western blot,significantly lower than those of the second and fourth groups
same,expression level of activated PARP,[2]; western blot,significantly lower than those of the second and fourth groups
same,expression level of activated caspase-3,[2]; western blot,significantly lower than those of the second and fourth groups
same,expression level of cytochrome c (cytosol),[2]; western blot,significantly lower than those of the second and fourth groups
same,expression level of matrix metalloproteinase 9,[2]; western blot,significantly lower than those of the second and fourth groups
same,expression level of nuclear factor κB,[2]; western blot,significantly lower than those of the second and fourth groups
same,expression level of transforming growth factor β,[2]; western blot,significantly lower than those of the second and fourth groups
same,expression level of tumor necrosis factor α,[2]; western blot,significantly lower than those of the second and fourth groups
same,"mitochondrial morphology in lung tissue (size, cristae; TEM)",[3],"smaller, and there are cristae in the mitochondrial inner membranes"
same,"number of inflammatory cells (MPO+, CD40+, CD11b/c+) in BAL fluid",[4],significantly lower than those in the second group
same,right ventricular systolic pressure (group comparison),[5],significantly reduced
same,albumin concentration in BAL fluid,[6],significantly lower than those in the second group
same,oxygen saturation (group comparison),[7],significantly higher than that of the fourth group
same,number of alveolar sacs,[8],significantly higher than that in the second group
CC1=CC(=O)c2ccccc2C1=O [menadione],protein oxidation in cells,[9],increased significantly
